# In PMC9981206 (Cancer Research Communications, 2022):
# Legend:
# [1] = system: ABC-1 cells; assay: MTS colorimetric cell growth assay, ABC-1; format: cell-based; settings: Homo sapiens, ABC-1, 120 h
# From the text: (§1) The cell cultures were kept below 20 passages (∼10 weeks) and routinely monitored (upon thawing and monthly) for Mycoplasma infections with MycoAlert Mycoplasma Detection Kit (Lonza). All cell lines were authenticated by short tandem repeat profiling to confirm their identity (Eurofins). TNKS1/2 and PARP1 biochemical assays ([27, 32]), luciferase-based WNT/β-catenin signaling pathway reporter assay ([22, 27, 32]), anti-proliferative assays, and NCI-60 tumor cell line panel screen ([7]), immunoblot analyses ([7, 32, 39]), RNA isolation, and real-time qRT-PCR ([7, 27, 39, 40]) were performed as previously described.
# (§2) Prostate (Pro) and central nervous system (CNS). […] Mean ± SD values for data from one representative experiment of more than three repeated assays, each with six replicates, are shown. C, Evaluation of WNT/β-catenin signaling. Left, immunoblots of cytoplasmic AXIN1 and nuclear active form of β-catenin [non-phospho (Ser33/37/Thr41)] and total β-catenin. Lamin B1 loading controls are duplicated for OVCAR-4 immunoblots. Right, real-time RT-qPCR analysis of the WNT/β-catenin signaling target gene AXIN2. […] Immunoblots show representative data from two or more independent experiments. Actin (cytoplasm) and lamin B1 (nucleus) were used as loading controls. […]
# [2] = system: OVCAR-4 cells; assay: MTS colorimetric cell growth assay, OVCAR-4; format: cell-based, human
# From the text: as §1, §2
# [3] = in vivo; format: in vivo, CB17-SCID mice; settings: CB17-SCID, mouse, doses 0.33–10 mg/kg oral twice daily, 4 hours post last dosing, mass spectrometry
# Experimental: (§3) The experiment using COLO 320DM (CCL-220, RRID: CVCL_0219, ATCC) xenografts was carried out as previously described ([40]) at Reaction Biology. […] Next, the mice were sacrificed, approximately 4 hours after first dose of the day. Protein and RNA extracts were prepared from four moderately sized tumors within each treatment group.
# [4] = system: COLO 320DM xenografts; assay: in vivo; format: in vivo, CB17-SCID mice; settings: for body weight changes: tumor-bearing CB17-SCID mice
# Experimental: as §3
# [5] = 28-day oral repeated dose toxicity study; format: in vivo, mice
# Experimental: Body weight and food consumption were measured thrice weekly. For the experiment using 10 mg/kg oral–twice daily dosing, blood was collected at the end of the experiment and hematologic and clinical biochemistry analyses were performed at IDEXX according to their standard protocols. Duodenum, jejunum, ileum, colon–rectum, lymph nodes, pancreas, heart, kidney, liver, spleen, lung, prostate, and testis were collected, formalin-fixed (10%), paraffin-embedded, stained with hematoxylin and eosin (H&E), and imaged as previously described ([39]). Staining of ileums using immunofluorescence was performed as previously described ([29, 39]). […] DAPI nuclear dye [(340 nm), 1 μg/μL, D9542, Sigma Aldrich] was added to the final washing solution. […] Imaging was performed using confocal microscopy as described previously ([39]). All animal experiments were approved by local animal experiment authorities (ethics committee of the Chinese Association for Laboratory Animal Sciences, German Centre for the Protection of Laboratory Animals, and Norwegian Food Safety Authority), and were carried out in compliance with FELASA guidelines and recommendations.
# [6] = system: WNT/β-catenin signaling; assay: Immunoblot and real-time qRT-PCR, WNT/β-catenin signaling in cancer cell lines; format: cell-based, human; settings: 10 nmol/L, 24 hours
# From the text: as §1
# Prostate (Pro) and central nervous system (CNS). […] Mean ± SD values for data from one representative experiment of more than three repeated assays, each with six replicates, are shown. C, Evaluation of WNT/β-catenin signaling. Left, immunoblots of cytoplasmic AXIN1 and nuclear active form of β-catenin [non-phospho (Ser33/37/Thr41)] and total β-catenin. Lamin B1 loading controls are duplicated for OVCAR-4 immunoblots. Right, real-time RT-qPCR analysis of the WNT/β-catenin signaling target gene AXIN2. […] Immunoblots show representative data from two or more independent experiments. Actin (cytoplasm) and lamin B1 (nucleus) were used as loading controls. Boxplots show median, first, and third quartiles and maximum and minimum whiskers for combined data from three independent experiments with three replicates each. Stippled lines (black) depict control mean values = 1. Two-tailed t tests: ***, P < 0.001; **, P < 0.01; and *, P < 0.05. Mann–Whitney rank sum tests: ‡, P < 0.01. ns., not significant. D, Evaluation of YAP signaling. Left, immunoblots of cytoplasmic AMOTL2 (top) and nuclear YAP and TAZ (bottom). Right, real-time RT-qPCR analysis of the YAP signaling target genes AMOTL2, CCN1, and […]. For D and E, lamin B1 loading controls are duplicated for RKO immunoblots (YAP/TAZ and CCND1). E, Evaluation of MYC signaling. Left, immunoblots of nuclear MYC and CCND1. Lamin B1 loading controls are duplicated for ABC-1 immunoblots. […]
# [7] = system: YAP signaling; assay: Immunoblot and real-time qRT-PCR, YAP signaling in cancer cell lines; format: cell-based, human; settings: 10 nmol/L, 24 hours
# From the text: as §1, §2
# [8] = target: PARP1 (Homo sapiens, UniProt P09874); settings: biochemical assay; cited from earlier work
# [9] = system: WNT/β-catenin signaling; settings: HEK293 cells, mean ± SD; read-out: WNT reporter IC50; cited from earlier work
# [10] = system: COLO 320DM colon carcinoma cells; settings: cited from earlier work
# [11] = Dose escalation experiment (acute toxicity, MTD); settings: 500, 1,000, 1,500, or 2,000 mg/kg oral twice daily, single male CD-1 mice
# Experimental: The dose escalation experiment was performed in single male CD-1 mice (CRL: 022, RRID: IMSR_CRL: 022, Charles River) at BSL BIOSERVICE/Eurofins using their standard protocol. […] Body weight was recorded daily.
# [12] = 10 mg/kg oral twice daily, 28 days, CD-1 mice
# [13] = 10 mg/kg oral twice daily, 28 days, CD-1 mice, clinical biochemistry
# [14] = 10 mg/kg oral twice daily, 28 days, CD-1 mice, hematology
# Sequence of PARP1 (P09874 whole entry): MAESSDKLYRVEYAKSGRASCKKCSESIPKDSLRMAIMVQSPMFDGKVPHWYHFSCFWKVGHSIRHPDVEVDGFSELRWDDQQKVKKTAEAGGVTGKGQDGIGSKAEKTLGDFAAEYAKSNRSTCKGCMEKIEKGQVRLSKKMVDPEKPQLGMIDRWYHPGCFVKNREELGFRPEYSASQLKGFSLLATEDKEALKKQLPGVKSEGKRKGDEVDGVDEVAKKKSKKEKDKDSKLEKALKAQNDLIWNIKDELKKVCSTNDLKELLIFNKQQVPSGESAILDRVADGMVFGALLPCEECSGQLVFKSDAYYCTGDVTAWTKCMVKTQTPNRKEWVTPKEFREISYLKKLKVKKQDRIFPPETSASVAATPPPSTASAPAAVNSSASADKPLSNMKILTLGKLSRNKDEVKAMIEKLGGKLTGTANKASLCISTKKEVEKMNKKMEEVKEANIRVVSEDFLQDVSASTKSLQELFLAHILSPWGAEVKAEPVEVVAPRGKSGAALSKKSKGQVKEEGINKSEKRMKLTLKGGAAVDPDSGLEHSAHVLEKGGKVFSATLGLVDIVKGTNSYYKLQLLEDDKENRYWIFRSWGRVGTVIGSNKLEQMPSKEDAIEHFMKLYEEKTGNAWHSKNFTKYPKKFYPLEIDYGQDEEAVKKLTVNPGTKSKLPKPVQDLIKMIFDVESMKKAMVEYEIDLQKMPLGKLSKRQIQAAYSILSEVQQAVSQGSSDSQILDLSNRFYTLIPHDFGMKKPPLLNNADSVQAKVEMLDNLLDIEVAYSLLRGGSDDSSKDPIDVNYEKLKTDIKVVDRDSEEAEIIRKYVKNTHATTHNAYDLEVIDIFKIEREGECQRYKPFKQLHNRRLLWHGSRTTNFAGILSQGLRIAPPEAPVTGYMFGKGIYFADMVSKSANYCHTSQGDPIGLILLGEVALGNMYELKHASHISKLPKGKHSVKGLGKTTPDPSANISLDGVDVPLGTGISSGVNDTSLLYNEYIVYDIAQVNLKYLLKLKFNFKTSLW
smiles,measurement,setting,value
CCOc1ccc(-c2nnc([C@H]3C[C@H](NC(=O)c4cccc5nccnc45)C3)n2-c2ccccc2F)nc1 [OM-153],GI50,[1],2 nM
same,GI50,"[2]; Homo sapiens, OVCAR-4, 120 h",> 10 nM
same,GI25,"[2]; OVCAR-4, 5 days",2.5 nmol/L
same,concentration at 4 h,[3]; plasma,> 10 nM
same,concentration at 4 h,[3]; tumor,> 10 nM
same,body weight changes,[4]; 10 mg/kg oral twice daily,no changes in body weights that would be suggestive for toxicity
same,body weight changes,[4]; 3.3 and 1 mg/kg oral twice daily,statistically significant body weight reductions
same,"β-catenin protein and WNT/β-catenin signaling target genes DKK1, APCDD1, NKD1 in tumors","[4]; immunoblot and real-time qRT-PCR, oral twice daily",dose-dependently reduced
same,AXIN1 and AXIN2 proteins in the tumor specimen,"[4]; immunoblot, oral twice daily",stabilized
same,"clinical signs, body weight, food consumption",[5]; [12],"no clinical signs, body weight loss, or reduced food consumption were observed"
same,histopathology of other organs,[5]; [12],No atypical histopathologic changes
same,overall intestinal architecture,[5]; [12],intact
same,expression of the ISC marker and WNT/β-catenin signaling target gene Lgr5 in ileum,"[5]; 10 mg/kg oral twice daily, 28 days, CD-1 mice, RNAscope",reduced
same,"AST, ALT and GLDH levels",[5]; [13],insignificant alteration
same,"magnesium, potassium, and triglycerides",[5]; [13],significant decreases
same,erythrocytes and hemoglobin,[5]; [14],moderate but significant reduction
same,leukocytes and reticulocytes,[5]; [14],tendency toward reduced
same,histopathology of the other organs,"[5]; 100 mg/kg oral twice daily, C57BL/6J mice",No abnormal histopathologic changes
same,small intestine histopathology,"[5]; 100 mg/kg oral twice daily, C57BL/6J mice, 2 out of three mice","loss of villi height, width, crypt, and as well as surface epithelium, accompanied by inflammation"
same,clinical observation and body weight,"[5]; 100 mg/kg oral twice daily, C57BL/6J mice, euthanized on day 7",reduced activity and body weight loss in 3 of 4 mice
same,kidney histopathology,"[5]; 100 mg/kg oral twice daily, C57BL/6J mice, same mice as intestinal damage",signs of acute tubular damage in the kidney
same,transcription of AXIN2,"[6]; COLO 320DM, OVCAR-4 and ABC-1 cells",significantly reduced
same,AXIN1 protein,"[6]; all cell lines (COLO 320DM, UO-31, OVCAR-4, ABC-1, RKO)",stabilized
same,transcriptionally active form of β-catenin in the nuclei,[6]; only in COLO 320DM and ABC-1 cells,reduction
same,"transcription of YAP signaling target genes AMOTL2, CCN1 and CCN2",[7]; all TNKSi-sensitive cell lines,reduced transcription
same,AMOTL2 protein,[7]; all cell lines,cytoplasmic stabilization
same,IC50,[8],> 100 µM
same,IC50,[9],0.63 nM
same,COLO320DM GI25,[10]; 5 days of cultivation,2.5 nmol/L
same,GI50,"[10]; 5 days of cultivation, read-out: COLO320DM GI50",10 nM
same,COLO 320DM in vitro GI50 value,[10]; same value as 10 nmol/L,5.1 ng/mL
same,clinical signs of systemic toxicity,[11],No clinical signs of systemic toxicity
